The values below come from patent US20250304571A1, “BIOLOGICALLY ACTIVE COMPOUNDS AND METHODS THEREOF” (Suzhou Keen Therapeutics Co., Ltd., priority 2022, published 2025).

The experiment relates to 786-O (renal cell carcinoma) cells. Nature of the experiment: Cell viability (CellTiter Glo) assay, inhibition of 786-O cell proliferation. The experiment is classed as cell-based. Particulars: read-out: IC50, inhibition of 786-O cell proliferation.
Where [1] appears, read: Homo sapiens, 786-0, 786-O cells, 72 hours, CellTiter Glo.
The mark [2] stands for this setting: 786-O cells, 72 hours, CellTiter Glo.

The structures appear in SMILES notation. Read-outs that look alike come from different tables or passages of the source. Bounds are passed on as bounds.

As to `CN1CCN=C1OCc1ncc2c(n1)N(c1ccc(Oc3ccccc3)cc1)CC2(C)C` [Compound E140], the IC50 (Homo sapiens, 786-0, 72 h) fell in the range of 500 to 5000 nM.
As for `CNc1nc(COC(=N)N2CCC[C@@H]2C(F)(F)F)nc2c(-c3ccc(N4C[C@@H](C)O[C@@H](C)C4)nc3)coc12` [Compound E194], under setting [1], the IC50 is 100 to 500 nM.
With `N=C(OCc1nc(NC2CC2)c2c(n1)N(c1ccc(N3CCOCC3)cc1)C(=O)C21CCCC1)N1CCC[C@@H]1C(F)(F)F` [Compound E53, (4′-(cyclopropylamino)-7′-(4-morpholinophenyl)-6′-oxo-6′,7′-dihydrospiro[cyclopentane-1,5′-pyrrolo[2,3-d]pyrimidin]-2′-yl)methyl (R)-2-(trifluoromethyl)pyrrolidine-1-carbimidate], the IC50 under setting [1] was less than 100 nM.
The same measure, in the same setting: then `CN(C)c1nc(COC(=N)N2CCC[C@@H]2C(F)(F)F)nc2c1C(C)(C)C(=O)N2c1ccc(N2CCOCC2)cc1` [Compound E54], with less than 100 nM; and `N=C(OCc1nc2c(c(C(F)(F)F)n1)C1(CCCC1)C(=O)N2c1ccc(N2CCOCC2)cc1)N1CCC[C@@H]1C(F)(F)F` [Compound E202], with 500 to 5000 nM.
Regarding `CNc1nc(COC(=N)N2CCCC2C(F)(F)F)nc2c1C(C)(C)C(=O)N2c1ccc2c(c1)CCCO2` (stereo not shown) [Compound E182], the IC50 under setting [2] was less than 100 nM.
As to `C#CCOc1cccc(Oc2ccc(Nc3nc(N)nc(COC(=N)N4CCCCC4C(F)(F)F)n3)cc2)c1` (stereo not shown) [Compound F46], the IC50 under setting [1] is less than 100 nM.
With `N=C(OCc1nc(N)nc(Nc2ccc(Oc3ccccc3)cc2)n1)N1CCCO1` [Compound F44], under setting [1], the IC50 was 100 to 500 nM.
With `N=C(OCc1nc(C(F)F)c2c(n1)N(c1ccc(N3CCOCC3)cc1)C(=O)C21CCCC1)N1CCC[C@@H]1C(F)(F)F` [Compound E199], under setting [1], the IC50 was 500 to 5000 nM.
On the same count and under the same terms, for `CS(=O)(=O)c1ccc(N2C(=O)C3(CCCC3)c3c(N)nc(COC(=N)N4CCC[C@@H]4C(F)(F)F)nc32)cc1` [Compound E213] the value was 100 to 500 nM.
For the compound `CNc1nc([C@H](C)OC(=N)N2CCC[C@@H]2C(F)(F)F)nc2c1C(C)(C)C(=O)N2c1ccc(N2CCOCC2)cc1` [Compound E180], under setting [2], the IC50 was more than 5000 nM.
Consider `N=C(OCc1nc(NC2CC2)c2c(n1)N(c1cc(F)cc(F)c1)C(=O)C21CCCC1)N1CCC[C@@H]1C(F)(F)F` [Compound E206], for which the IC50 under setting [2] fell in the range of 100 to 500 nM.
On to `CCN(CC)C(=N)OCc1nc(N)nc(Nc2ccc(Oc3ccccc3)cc2)n1` [Compound F17], for which the IC50 under setting [1] was in the range of 100 to 500 nM.
Take `COc1cc(N2CCOCC2)ccc1N1CC(C)(C)c2c(OCC(F)(F)F)nc(COC(=N)N3CCC[C@@H]3C(F)(F)F)nc21` [Compound E17]: the IC50 (Homo sapiens, 786-0, 72 h) was less than 100 nM.
As for `CN(C)C(=N)OCc1ncc2c(n1)N(c1ccc(OC3CCOCC3)nc1)CC21CC1` [Compound E147], the IC50 (Homo sapiens, 786-0, 72 h) was more than 5000 nM.
Regarding `CC1(C)C(=O)N(c2ccc(N3CCOCC3)cc2)c2nc(COC(=N)N3CCCCC3C(F)(F)F)nc(N)c21` (stereo not shown) [Compound E172], under setting [2], the IC50 was less than 100 nM.
Regarding `C[C@@H]1CN(c2ccc(N3C(=O)C(C)(C)c4c(N)nc(COC(=N)N5CCC[C@@H]5C(F)(F)F)nc43)cn2)C[C@H](C)O1` [Compound E186, (4-amino-7-(6-((2S,6R)-2,6-dimethylmorpholino)pyridin-3-yl)-5,5-dimethyl-6-oxo-6,7-dihydro-5H-pyrrolo[2,3-d]pyrimidin-2-yl)methyl (R)-2-(trifluoromethyl)pyrrolidine-1-carbimidate], the IC50 under setting [1] is less than 100 nM.
The same measure, in the same setting: then `CC(C)N(CC(F)(F)F)C(=N)OCc1ncc2c(n1)N(c1ccc(N3CCOCC3)cc1)C(=O)C21CCOCC1` [Compound E157, (7′-(4-morpholinophenyl)-6′-oxo-2,3,5,6,6′,7′-hexahydrospiro[pyran-4,5′-pyrrolo[2,3-d]pyrimidin]-2′-yl)methyl isopropyl(2,2,2-trifluoroethyl)carbamimidate], with more than 5000 nM; and `N=C(OCc1nc(NC2CC2)c2c(n1)N(c1cc(F)c3c(c1)CCO3)C(=O)C21CCCCC1)N1CCC[C@@H]1C(F)(F)F` [Compound E55], with less than 100 nM.
With `CC1(C)C(=O)N(c2ccc3c(c2)C2(CCO3)CC2)c2nc(COC(=N)N3CCC[C@@H]3C(F)(F)F)nc(NCC(F)(F)F)c21` [Compound E66], the IC50 under setting [2] is less than 100 nM.
For the compound `CCN(CC(F)(F)F)C(=N)OCc1cc(Nc2ccc(Oc3ccccc3)cc2)cnn1` [Compound F48], under setting [1], the IC50 lay in the range of 500 to 5000 nM.
Still for that read-out and setting: then `CNc1nc(COC(=N)N2CCC[C@H]2C(F)(F)F)nc2c1C(C)(C)CN2c1ccc(N2CCOCC2)cc1OC` [Compound E107], with less than 100 nM; and `N=C(OCc1nc(N)nc(Nc2ccc(Oc3ccccc3)cc2)n1)N(CC(F)(F)F)C1CCOCC1` [Compound F51], with less than 100 nM.
Regarding `N=C(OCc1nc(N)nc(Nc2ccc(Oc3ccccc3)cc2)n1)N(C1CCCCC1)C1CC1` [Compound F14], the IC50 (Homo sapiens, 786-0, 72 h) was less than 100 nM.
For the compound `CC1(C)C(=O)N(c2cnc(C3CCOCC3)nc2)c2nc(COC(=N)N3CCC[C@@H]3C(F)(F)F)nc(NC3CCC3)c21` [Compound E89], the IC50 under setting [1] lay in the range of 500 to 5000 nM.
Still for that read-out and setting: for `[2H]C([2H])(OC(=N)N(CC(F)(F)F)C(C)C)c1nc(N)c2c(n1)N(c1ccc(OC3CCCCC3)cc1)CC2(C)C` [Compound E154, ethyl (4-amino-7-(4-(cyclohexyloxy)phenyl)-5,5-dimethyl-6,7-dihydro-5H-pyrrolo[2,3-d]pyrimidin-2-yl)methyl-d2 isopropyl(2,2,2-trifluoroethyl)carbamimidate] the value was less than 100 nM.
The same measure, in the same setting: then `CC1(C)C(=O)N(c2cnc(N3CCC(F)(F)CC3)nc2)c2nc(COC(=N)N3CCC[C@@H]3C(F)(F)F)nc(NC3CC3)c21` [Compound E59], with less than 100 nM; and `N=C(OCc1ncc2c(n1)N(c1ccc(N3CCOCC3)cc1)C(=O)C21CCCCC1)N1CCC[C@@H]1C(F)(F)F` [Compound E58], with less than 100 nM.
Turning to `N=C(OCc1nc(N)nc(Nc2ccc(Oc3ccccc3)cc2)n1)N1CCCC12CCOCC2` [Compound E122], under setting [1], the IC50 fell in the range of 500 to 5000 nM.
Still for that read-out and setting: then `CCNc1nc(COC(=N)N2CCCC2C(F)(F)F)nc2c1C(C)(C)C(=O)N2c1ccc(N2CCOCC2)cc1` (stereo not shown) [Compound E175], with less than 100 nM; and `CNc1nc(COC(=N)N2CCCC2C(F)(F)F)nc2c1C(C)(C)C(=O)N2c1ccc(N2CCOCC2)cc1` (stereo not shown) [Compound E152, [5,5-dimethyl-4-(methylamino)-7-(4-morpholinophenyl)-6-oxo-pyrrolo[2,3-d]pyrimidin-2 yl]methyl 2-(trifluoromethyl)pyrrolidine-1-carboximidate], with less than 100 nM.
Same read-out and setting: for `N=C(OCc1nc(NC2CCC2)c2c(n1)N(c1ccc(N3CCOCC3)cc1)C(=O)C21CCCC1)N1CCC[C@@H]1C(F)(F)F` [Compound E91] the value was less than 100 nM; for `C#CCN(CC(F)(F)F)C(=N)OCc1nc(N)c2c(n1)N(c1ccc(N3C[C@@H](C)O[C@@H](C)C3)nc1)C(=O)C2(C)C` [Compound E192], 100 to 500 nM; for `CNc1nc(COC(=N)N2CC(F)(F)C[C@@H]2C)nc2c1C(C)(C)C(=O)N2c1ccc(N2CCOCC2)cc1` [Compound E41], 100 to 500 nM.
The same measure, in the same setting: then `CC(C)N(CC(F)(F)F)C(=N)OCc1ncc(C2=CCOCC2)c(Nc2ccc(N3CCOCC3)nc2)n1` [Compound E120], with 500 to 5000 nM.
For the compound `CNc1nc(COC(=N)N2CCCC2C(F)(F)F)nc2c1C(C)(C)C(=O)N2c1ccc(N2CCC(F)(F)CC2)nc1` (stereo not shown) [Compound E22], the IC50 under setting [1] was less than 100 nM.
With `COc1ccc(CNc2nc(COC(=N)N3CCC(F)(F)CC3)nc3c2C(C)(C)CN3c2ccc(Oc3ccccc3)cc2)cc1` [Compound E6], under setting [1], the IC50 lay in the range of 100 to 500 nM.
For `CNc1nc(COC(=N)N2CCCCC2C(F)(F)F)nc2c1C(C)(C)C(=O)N2c1ccc(N2CCOCC2)cc1` (stereo not shown) [Compound E153], under setting [1], the IC50 was less than 100 nM.
`C[C@@H]1CN(c2ccc(N3C(=O)C4(CCCC4)c4c(N)nc(COC(=N)N5CCC[C@@H]5C(F)(F)F)nc43)cn2)C[C@H](C)O1` [Compound E46]: for the setting “Homo sapiens, 786-0, 72 h”, the IC50 was less than 100 nM.
Turning to `C[C@@H]1CN(c2ccc(N3C(=O)C(C)(C)c4c(N)nc(COC(=N)N5CC(F)(F)C(F)(F)C5)nc43)cn2)C[C@H](C)O1` [Compound E195], the IC50 under setting [1] lay in the range of 100 to 500 nM.
Still for that read-out and setting: for `CC(C)N(CC(F)(F)F)C(=N)OCc1ncc(C(C)(C)O)c(Nc2ccc(Oc3ccccc3)cc2)n1` [Compound E138] the value was 100 to 500 nM; for `CC(C)N(CC(F)(F)F)C(=N)OCc1ncc2c(n1)N(c1ccc(Oc3ccccc3)cc1)CC21CC1` [Compound E137], less than 100 nM.
Regarding `CC1(C)CN(c2ccc(Oc3ccccc3)cc2)c2nc(COC(=N)N3CCCC34CCOCC4)ncc21` [Compound E121], under setting [1], the IC50 lay in the range of 500 to 5000 nM.
For the compound `N=C(OCc1ncc2c(n1)N(c1cnc(N3CCC(F)(F)CC3)nc1)C(=O)C21CCCC1)N1CCC[C@@H]1C(F)(F)F` [Compound E118], the IC50 under setting [1] is less than 100 nM.
On the same count and under the same terms, then `CCN(CC(F)(F)F)C(=N)OCc1ncc(C#N)c(Nc2ccc(Oc3ccccc3)cc2)c1F` [Compound F54], with 500 to 5000 nM; and `N=C(OCc1ncc2c(n1)N(c1ccc(Oc3ccccc3)cc1)C(=O)CC2)N1CCC(F)(F)CC1` [Compound C1], with more than 5000 nM; and `CNc1nc(COC(=N)N2CCC[C@@H]2C(F)(F)F)nc2c1C(C)(C)CN2c1ccc(N2CCOCC2)cc1OC` [Compound E106], with less than 100 nM.
Same read-out and setting: for `COc1cc(F)ccc1N1CC(C)(C)c2c(NC3CC3)nc(COC(=N)N3CCC[C@@H]3C(F)(F)F)nc21` [Compound E207] the value was less than 100 nM; for `CCCCOc1ccc(N2C(=O)C3(CC3)c3cnc(COC(=N)N(CC(F)(F)F)C(C)C)nc32)cc1` [Compound E161], 100 to 500 nM.
With `CC(C)N(CC(F)(F)F)C(=N)OCc1ncc2c(n1)N(C1CCC(Oc3ccccn3)CC1)C(=O)C21CC1` (stereo not shown) [Compound E134], the IC50 under setting [1] is 500 to 5000 nM.
As to `CNc1nc(COC(=N)N2CCC[C@@H]2C(F)(F)F)nc2c1C(C)(C)C(=O)N2c1ccc(N2C[C@@H](C)O[C@@H](C)C2)nc1` [Compound E69], the IC50 under setting [1] is less than 100 nM.
`CCN(CC(F)(F)F)C(=N)OCc1nc(N)c2c(n1)N(c1ccc(N3C[C@@H](C)O[C@@H](C)C3)nc1)C(=O)C2(C)C` [Compound E190]: under setting [1], the IC50 was in the range of 100 to 500 nM.
